Laboratory results published in patent US8114888B2, “Isothiazoloquinolones and related compounds as anti-infective agents” (Achillion Pharmaceuticals, Inc., priority 2005, dated 2012).

How the values were obtained:
[1] = Cell viability staining with Alamar Blue (compound cytotoxicity); type: cell-based; settings: positive control with known CC50
Protocol: To determine whether the microcidal effect observed against S. aureus and E. coli is specific to bacterial cells, compounds are screened for cell viability effects on several human cell types.
Optimal cell density is first determined by plating cells in a 96-well plate standard sterile tissue culture plates in 100 μl media, 10% FBS at six cell densities from 500 cells/well to 15,000 cells/well. A cell free well containing only media is used as a control. Cells are incubated at 37° C. in a 5% CO2 incubator for 24 hours. 10% culture volume (10 ul) of Alamar Blue (Biosource, DAL1100, 100 mL) is then added. Cells are incubated at 37° C. in a 5% CO2 incubator and read in a Victor V plate reader, 544 nm excitation, 590 nm emission, at 3, 4, and 24 hours after the addition of Alamar Blue. The cell number vs. change in fluorescence is plotted to determine linearity of signal vs. cell number. The optimal density varies between 500-15,000 cells/well depending on the specific cell type. […]
Cells are plated at optimal cell density in a standard sterile tissue culture 96 well plate, and incubated at 37° C. […] Plates are incubated 4 hours at 37° C. in a 5% CO2 incubator and read in a Victor V plate reader, 544 nm excitation, 590 nm emission. […]
The change in fluorescence vs. concentration of test compound is plotted to determine the cytotoxicity of the compound. […]

melting point	Structure (SMILES)	CC50 ([1]; Chinese hamster, CHO cells (Chinese hamster ovary)) [µM]	CC50 ([1]; human, Hep 2 cells (laryngeal carcinoma)) [µM]
> 257 °C (dec.)	NC1CCc2cc(-c3cc4c(cc3F)c(=O)c3c(=O)[nH]sc3n4C3CC3)ccc2C1 (racemic) [Compound 31, (rac)-7-(6-Amino-5,6,7,8-tetrahydronaphthalen-2-yl)-9-cyclopropyl-6-fluoro-9H-isothiazolo[5,4-b]quinoline-3,4-dione]		
> 241 °C (dec.)	O=c1[nH]sc2c1c(=O)c1cc(F)c(C3=CCNCC3)cc1n2C1CC1		
	CC(C)(C)c1ccc(C(O)CCCN2CCC(C(O)(c3ccccc3)c3ccccc3)CC2)cc1 (stereo not shown) [Terfenadine]	4.3 to 6.5	3 to 5
